Columns and labels:
[1] = tested on: Mus musculus; assay: In vivo calcemic effect was tested in vitamin D replete normal […] mice by measuring calcium levels in serum; assay type: functional
[2] = target: T1, Vitamin D3 receptor (Homo sapiens) (UniProt P11473); assay: Relative affinity compared to Calcitriol in displacement of [3H]1H]1-alpha,25(OH)2D3 from vitamin D3 receptor in […] cells; assay type: cell-based
T1 sequence (whole entry): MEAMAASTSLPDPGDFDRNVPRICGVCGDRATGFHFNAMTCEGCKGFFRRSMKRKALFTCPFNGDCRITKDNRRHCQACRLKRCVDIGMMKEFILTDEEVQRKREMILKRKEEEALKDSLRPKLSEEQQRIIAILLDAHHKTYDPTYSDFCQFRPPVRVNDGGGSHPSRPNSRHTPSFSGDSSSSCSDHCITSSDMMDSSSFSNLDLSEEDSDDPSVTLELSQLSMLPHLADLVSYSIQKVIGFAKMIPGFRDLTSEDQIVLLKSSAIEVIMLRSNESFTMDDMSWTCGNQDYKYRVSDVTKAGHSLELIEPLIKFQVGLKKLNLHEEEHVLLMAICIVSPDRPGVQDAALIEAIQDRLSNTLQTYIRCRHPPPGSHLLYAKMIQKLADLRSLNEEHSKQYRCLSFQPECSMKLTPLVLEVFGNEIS

[3] = target: T1, Vitamin D3 receptor (Homo sapiens); assay: Relative affinity compared to Calcitriol in displacement of [3H]1H]1-alpha,25(OH)2D3 from vitamin D3 receptor in HL-60 cells; assay type: cell-based
[4] = target: T2, Vitamin D3 receptor (Sus scrofa) (UniProt A3RGC1); assay: Affinity for pig intestinal mucosa Vitamin D3 receptor (VDR); assay type: tissue-based
T2 sequence (whole entry): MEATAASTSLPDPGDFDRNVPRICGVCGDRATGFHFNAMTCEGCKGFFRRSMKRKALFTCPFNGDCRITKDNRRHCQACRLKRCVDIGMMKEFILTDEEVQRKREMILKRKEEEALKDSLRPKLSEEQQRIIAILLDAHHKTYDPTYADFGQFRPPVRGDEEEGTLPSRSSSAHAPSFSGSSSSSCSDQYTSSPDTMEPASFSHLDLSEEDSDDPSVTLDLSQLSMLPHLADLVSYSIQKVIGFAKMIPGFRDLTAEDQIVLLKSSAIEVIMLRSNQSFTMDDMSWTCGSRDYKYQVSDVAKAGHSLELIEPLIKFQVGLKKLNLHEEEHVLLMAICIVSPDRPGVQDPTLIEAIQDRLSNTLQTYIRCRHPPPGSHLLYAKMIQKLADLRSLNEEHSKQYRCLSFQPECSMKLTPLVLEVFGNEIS

[5] = target: T1, Vitamin D3 receptor (Homo sapiens); assay: Relative affinity compared to Calcitriol in displacement of [3H]1H]1-alpha,25(OH)2D3 from Vitamin D3 receptor in Keratinocyte cell lines
[6] = target: T1, Vitamin D3 receptor (Homo sapiens); assay: Relative affinity compared to Calcitriol in displacement of [3H]1H]1-alpha,25(OH)2D3 from vitamin D receptor (VDR) in HL-60 cells; assay type: functional, cell-based
[7] = target: T1, Vitamin D3 receptor (Homo sapiens); assay: Relative affinity compared to Calcitriol in displacement of [3H]1H]1-alpha,25(OH)2D3 from vitamin receptor (VDR) in keratinocyte cells; assay type: functional, cell-based
[8] = target: T1, Vitamin D3 receptor (Homo sapiens); assay: Relative affinity compared to Calcitriol in displacement of [3H]1H]1-alpha,25(OH)2D3 from vitamin D receptor (VDR) in […] cells; assay type: cell-based
[9] = target: T2, Vitamin D3 receptor (Sus scrofa); assay: Affinity for pig intestinal mucosa vitamin D receptor (VDR)

C=C1/C(=C/C=C2/CCC[C@]3(C)[C@@H]([C@H](C)CC#C[C@](C)(O)CO)CC[C@@H]23)C[C@@H](O)C[C@@H]1O
Activity [1]: 0.7 | Activity [2]: 150% | Activity [3]: 150% | Activity [4]: 70 | Activity [5]: 250%

C=C1/C(=C/C=C2/CCC[C@]3(C)[C@@H]([C@H](C)CC#CC4(C)CO4)CC[C@@H]23)C[C@@H](O)C[C@@H]1O (stereo not given in full)
Activity [1]: 0.25 | Activity [2]: 150% | Activity [3]: 150% | Activity [4]: 70 | Activity [5]: 250%

C=C1/C(=C/C=C2/CCC[C@]3(C)[C@@H]([C@H](C)CC#C[C@]4(C)CO4)CC[C@@H]23)C[C@@H](O)C[C@@H]1O
Activity [1]: 0.2 | Activity [6]: 150% | Activity [7]: 250% | Activity [8]: 150% | Activity [9]: 75

C=C1/C(=C/C=C2/CCC[C@]3(C)[C@@H]([C@H](C)CC#C[C@@]4(C)CO4)CC[C@@H]23)C[C@@H](O)C[C@@H]1O
Activity [1]: 0.3 | Activity [2]: 150% | Activity [3]: 150% | Activity [4]: 60 | Activity [5]: 250%

C=C1/C(=C/C=C2/CCC[C@]3(C)[C@@H]([C@H](C)CC#C[C@@](C)(O)CO)CC[C@@H]23)C[C@@H](O)C[C@@H]1O
Activity [1]: 0.1 | Activity [2]: 150% | Activity [3]: 150% | Activity [4]: 80 | Activity [5]: 250%

Source: ChEMBL document CHEMBL1129900, “Synthesis and biological evaluation of 1-hydroxy-25(R and S)-25,26-Epoxy-23-yne vitamin D3 and of 1,25(R and S),26-Trihydroxy-23-yne vitamin D3” (1997)
